How the values were obtained:
[1] = test system: protoplasts from BGL-1 leaves; assay: Protoplast culture with hormones or hormone conjugates, BGL-1 protoplasts; assay type: cell-based, Nicotiana tabacum; conditions: for Division Efficiency / Plating Efficiency: BGL-1 protoplasts, hormone concentration in mg L^−1
Procedure: (§1) To evaluate the effects of hormones or hormone conjugates on protoplast division, six hormones or conjugate combinations (Table IV) were tested in the protoplast culture.
(§2) The protocol of the protoplast isolation was modified from the method of Rao and Prakash (1995). Leaves from BGL-1 and UT were cut into small pieces and placed on the surface of the enzyme solution with the lower surface down. Incubation was carried out in the dark at a temperature of 25° C.±1° C. for 8 h to release the protoplasts. The enzymatic cocktail contained 2% (w/v) cellulase Onozuka R-10, 0.5% (w/v) macerozyme R-10, 0.2% (w/v) dextran potassium sulfate, 5 mm CaCl2.2H2O, and 0.7 m mannitol, pH 5.8. After removing undigested materials and digested debris by filtration through a […] steel mesh, the enzymatic mixture was centrifuged at 1,000 rpm for 10 min. The protoplasts were resuspended in 5 mL of washing medium, and the process was repeated three times. Protoplasts were cultured at a density of 2×10^5 mL^−1 in 5-cm petri dishes in 3 mL of culture medium (Rao and Prakash, 1995) supplemented with different hormone or conjugate hormone regimes (Table IV). The cultures were kept at 25° C. in the dark. After 7 d, fresh medium was added to each petri dish, and the addition of medium was repeated on the 11th d of culture. […] After the development of microcalli visible to the naked eye, the cultures were transferred to light.

[2] = test system: protoplasts from UT leaves; assay: Protoplast culture with hormones or hormone conjugates, UT protoplasts; assay type: cell-based, Nicotiana tabacum; conditions: for Division Efficiency / Plating Efficiency: hormone concentration in mg L^−1
Procedure: as §1, §2

Compound | Division Efficiency [1] | Plating Efficiency [1] | Division Efficiency [2] | Plating Efficiency [2] | increase of cell division efficiency of BGL-1 protoplasts compared with UT protoplasts ([1]; exogenously supplied zeatin-O-glucoside) | protoplast division and cell colony formation ([2]; zeatin-O-glucoside only)
Naphthylacetic acid [Naphthylacetic acid (3.0)] | 9.1 ± 1.8% | 4.3 ± 0.5% | 4.8 ± 0.7% | 3.3 ± 0.2% |  | 
Zeatin-O-glucoside [Zeatin-O-glucoside (1.0)] | 7.5 ± 1.2% | 3.7 ± 0.3% | 0% | 0% | 670% | did not divide and form cell colonies
C/C(=C\CNc1ncnc2[nH]cnc12)CO [Zeatin (1.0), Zeatin] | 10.6 ± 0.8% | 6.2 ± 0.4% | 6.8 ± 0.9% | 4.6 ± 0.3% |  | 

From patent US20140033367A1 (priority 2010, published 2014)
